Data on 21 molecules can be found in patent US10144746B2 (GLOBAL BLOOD THERAPEUTICS, INC., priority 2015, dated 2018).

The assay has as its target Human plasma kallikrein (Homo sapiens (Human), UniProt P03952). In words: In vitro plasma kallikrein inhibition assay (chromogenic substrate D-Pro-Phe-Arg-pNa, absorbance at 405 nm, IC50 determination). It is filed as biochemical. The conditions noted are these: read-out: KLKB1 pIC50 (converted). As to the method: In Vitro Plasma Kallikrein Inhibition Assay
The chromogenic substrate D-Pro-Phe-Arg-pNa, 2HCl (BIOPHEN CS-31(02) from Hyphen BioMed, Neuville-Sur-oise, France) was dissolved in 5 mL deionized water and stored at 4° C. […] All other chemicals were of analytical grade.
A stock solution of 7 μM in 50% glycerol was stored at −20° C.
Enzyme reactions were conducted in “assay buffer” comprised of 20 mM HEPES at pH 7.4, 150 mM NaCl, 0.1% PEG-8000 and 0.01% Triton X-100.
Both enzyme and substrate were diluted in assay buffer.
Plate measurements were conducted using a SPECTROStar Nano reader (BMG Labtech, San Francisco, Calif., USA). […] We used discrete wavelength, precise, kinetic reads of 15 cycles with a 60 sec cycle time.
Determination of IC50 values
The test compound was dissolved in 100% DMSO. The compounds were serially diluted in DMSO in a 7 point dose response. For the assays, 66.5 μL of protease solution (protease in assay buffer) was added per well followed by the addition of 8.5 μL of compound in 100% DMSO. […] After 30 min. incubation at room temperature on an orbital shaker, the reactions were started by the addition of 10 μL substrate solution (in assay buffer, final assay concentration was 600 uM). After the addition of the substrate solution the final DMSO concentration was 10%. The plate was placed again on the shaker for 5 sec, spun at 2000 rpm for 5 sec and read on the spectrophotometer. […] The IC50 value was calculated from the plot of rate vs. inhibitor concentration by a 4 parameter logistic equation: y=A+((B−A)/([…]))
where y is the rate at the inhibitor concentration, x. A is the minimum y value at the highest inhibitor concentration and B is the y value in the absence of inhibitor, C is the IC50 value and D is the slope factor. The curve fitting was conducted with the non-linear regression routine of the analysis software XLfit (IDBS, version 5.3.1).

Chain of Human plasma kallikrein (P03952 391-638): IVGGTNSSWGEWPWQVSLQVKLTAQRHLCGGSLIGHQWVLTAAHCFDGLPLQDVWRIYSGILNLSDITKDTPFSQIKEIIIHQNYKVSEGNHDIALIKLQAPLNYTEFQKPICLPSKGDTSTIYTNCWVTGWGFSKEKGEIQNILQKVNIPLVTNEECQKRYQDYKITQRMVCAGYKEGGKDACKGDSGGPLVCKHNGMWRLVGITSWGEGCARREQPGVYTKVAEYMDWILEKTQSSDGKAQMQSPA
Chain of Human plasma kallikrein (P03952 20-390 partner): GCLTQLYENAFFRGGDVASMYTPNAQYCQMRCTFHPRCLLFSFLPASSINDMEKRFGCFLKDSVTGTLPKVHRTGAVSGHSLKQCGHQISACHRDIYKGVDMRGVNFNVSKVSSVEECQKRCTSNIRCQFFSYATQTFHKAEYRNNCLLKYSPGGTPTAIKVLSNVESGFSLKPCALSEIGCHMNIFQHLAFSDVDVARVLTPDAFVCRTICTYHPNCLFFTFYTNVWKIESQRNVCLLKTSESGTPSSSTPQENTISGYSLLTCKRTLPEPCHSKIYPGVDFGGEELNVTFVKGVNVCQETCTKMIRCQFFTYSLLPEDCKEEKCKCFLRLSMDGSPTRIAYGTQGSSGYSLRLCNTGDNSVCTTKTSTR

For the molecule `C#Cc1ccccc1-c1ccc2c(c1)C1OC2c2ccc(C(=O)NCc3c(C)cc(N)nc3C)cc21` (racemic) [Example 126, (±)-N-[(6-amino-2,4-dimethylpyridin-3-yl)-methyl]-12-(2-ethynylphenyl)-15-oxatetra-cyclo[6.6.1.0^2,^7.0^9,1^4]pentadeca-2,4,6,9,11,13-hexaene-4-carboxamide], the IC50 was 6310 nM.

Consider `COc1ccc(-n2cnnn2)c(CNC(=O)c2ccc3c(c2)C2OC3c3ccc(-c4ccc(F)cc4F)cc32)c1` (racemic) [Example 127, (±)-12-(2,4-difluorophenyl)-N-{[5-methoxy-2-(1H-1,2,3,4-tetrazol-1-yl)phenyl]methyl}-15-oxatetracyclo[6.6.1.0^2,^7.0^9,1^4] pentadeca-2,4,6,9,11,13-hexaene-4-carboxamide], for which the IC50 was 977 nM.

For `Cc1cc(N)nc(C)c1CNC(=O)c1ccc2c(c1)C1OC2c2ccc(-c3cccc(S(C)(=O)=O)c3)cc21` (racemic) [Example 128, (±)-N-[(6-amino-2,4-dimethylpyridin-3-yl)-methyl]-12-(3-methanesulfonylphenyl)-15-oxatetracyclo[6.6.1.0^2,^7.0^9,1^4] pentadeca-2,4,6,9,11,13 hexaene-4-carboxamide], the IC50 is 933 nM.

Regarding `COc1ccc(-n2cnnn2)c(CNC(=O)c2ccc3c(c2)C2OC3c3ccc(-c4ccc(F)cc4F)cc32)c1F` (racemic) [Example 129, (±)-12-(2,4-difluorophenyl)-N-{[2-fluoro-3-methoxy-6-(1H-1,2,3,4-tetrazol-1-yl)phenyl]-methyl}-15-oxatetracyclo [6.6.1.0^2,^7.0^9,1^4]-pentadeca-2,4,6,9,11,13-hexaene-4-carboxamide], the IC50 was 234 nM.

For `COc1cc(N)nc(C)c1CNC(=O)c1ccc2c(c1)C1OC2c2ccc(Cn3cc(C)cn3)cc21` (racemic) [Example 132, (±)-N-[(6-amino-4-methoxy-2-methylpyridin-3-yl)methyl]-12-[(4-methyl-1H-pyrazol-1-yl)-methyl]-15-oxatetracyclo[6.6.1.0^2,^7.0^9,1^4]-pentadeca-2,4,6,9,11,13-hexaene-4-carboxamide], the IC50 was 2 nM.

Turning to `CCOc1cc(N)nc(C)c1CNC(=O)c1ccc2c(c1)C1OC2c2ccc(Cn3cccn3)cc21` (racemic) [Example 133, (±)-N-[(6-amino-4-ethoxy-2-methylpyridin-3-yl)methyl]-12-[(1H-pyrazol-1-yl)methyl]-15-oxatetracyclo[6.6.1.0^2,^7.0^9,1^4] pentadeca-2,4,6,9,11,13-hexaene-4-carboxamide], the IC50 is 11 nM.

For `CCOc1cc(N)nc(C)c1CNC(=O)c1ccc2c(c1)C1OC2c2ccc(Cn3cc(C)cn3)cc21` (racemic) [Example 134, (±)-N-[(6-amino-4-ethoxy-2-methylpyridin-3-yl)methyl]-12-[(4-methyl-1H-pyrazol-1-yl)methyl]-15-oxatetracyclo[6.6.1.0^2,^7.0^9,1^4]-pentadeca-2,4,6,9,11,13-hexaene-4-carboxamide], the IC50 is 2 nM.

For `CCc1cc(N)nc(C)c1CNC(=O)c1ccc2c(c1)C1OC2c2ccc(-c3ccc(F)cc3F)cc21` (racemic) [Example 135, (±)-N-[(6-amino-4-ethyl-2-methylpyridin-3-yl)methyl]-12-(2,4-difluorophenyl)-15-oxatetracyclo[6.6.1.0^2,^7.0^9,1^4] pentadeca-2,4,6,9,11,13-hexaene-4-carboxamide], the IC50 is 19.5 nM.

For the molecule `CCc1cc(N)nc(C)c1CNC(=O)c1ccc2c(c1)C1OC2c2ccc(-c3ccc(C)cc3C#N)cc21` (racemic) [Example 136, (±)-N-[(6-amino-4-ethyl-2-methylpyridin-3-yl)methyl]-12-(2-cyano-4-methylphenyl)-15-oxatetracyclo[6.6.1.0^2,^7.0^9,1^4] pentadeca-2,4,6,9,11,13-hexaene-4-carboxamide], the IC50 is 3.98 nM.

For the molecule `Cc1ccc(-c2ccc3c(c2)C2OC3c3ccc(C(=O)NCc4c(C)cc5c(c4C)CNC5)cc32)c(C#N)c1` (racemic) [Example 137, (±)-12-(2-cyano-4-methylphenyl)-N-[(4,6-dimethyl-2,3-dihydro-1H-isoindol-5-yl)methyl]-15-oxatetracyclo[6.6.1.0^2,^7.0^9,1^4] pentadeca-2,4,6,9,11,13-hexaene-4-carboxamide], the IC50 is 437 nM.

As to `Cc1cc(N)nc(C)c1CNC(=O)c1ccc2c(c1)C1OC2c2ccc(-c3c(C)cc(F)cc3F)cc21` (racemic) [Example 141, (±)-N-[(6-amino-2,4-dimethlpyridin-3-yl)-methyl]-12-(2,4-difluoro-6-methylphenyl)-15-oxatetracyclo[6.6.1.0^2,^7.0^9,1^4] pentadeca-2,4,6,9,11,13-hexaene-4-carboxamide], the IC50 is 105 nM.

As for `CCc1cc(N)nc(C)c1CNC(=O)c1ccc2c(c1)C1OC2c2ccc(-c3c(C)cc(F)cc3F)cc21` (racemic) [Example 142, (±)-N-[(6-amino-4-ethyl-2-methylpyridin-3-yl)-methyl]-12-(2,4-difluoro-6-methylphenyl)-15-oxatetracyclo[6.6.1.0^2,^7.0^9,1^4] pentadeca-2,4,6,9,11,13-hexaene-4-carboxamide], the IC50 is 1620 nM.

Regarding `Cc1ccc(-c2ccc3c(c2)C2OC3c3ccc(C(=O)NCc4c(F)cc5c(c4C)CNC5)cc32)c(C#N)c1` (racemic) [Example 143, (±)-12-(2-cyano-4-methylphenyl)-N-[(6-fluoro-4-methyl-2,3-dihydro-1H-isoindol-5-yl)methyl]-15-oxatetracyclo [6.6.1.0^2,^7.0^9,1^4]pentadeca-2,4,6,9,11,13-hexaene-4-carboxamide], the IC50 is 288 nM.

Turning to `Cc1cc(N)nc(C)c1CNC(=O)c1ccc2c(c1)C1OC2c2ccc(Oc3cccnc3)cc21` (racemic) [Example 144, (±)-N-[(6-amino-2,4-dimethylpyridin-3-yl)methyl]-12-(pyridin-3-yloxy)-15-oxatetracyclo[6.6.1.0^2,^7.0^9,1^4] pentadeca-2,4,6,9,11,13-hexaene-4-carboxamide], the IC50 was 6310 nM.

Regarding `Cc1cc(N)nc(C)c1CNC(=O)c1ccc2c(c1)C1OC2c2ccc(-c3c(F)cc(F)cc3Cl)cc21` (racemic) [Example 146, (±)-N-[(6-amino-2,4-dimethylpyridin-3-yl)-methyl]-12-(2-chloro-4,6-difluorophenyl)-15-oxatetracyclo[6.6.1.0^2,^7.0^9,1^4] pentadeca-2,4,6,9,11,13-hexaene-4-carboxamide], the IC50 was 148 nM.

With `Cc1cc(CN)cc(C)c1CNC(=O)c1ccc2c(c1)C1OC2c2ccc(-c3ccc(F)cc3F)cc21` (racemic) [Example 147, (±)-N-{[4-(aminomethyl)-2,6-dimethylphenyl]-methyl}-12-(2,4-difluorophenyl)-15-oxatetracyclo[6.6.1.0^2,^7.0^9,1^4] pentadeca-2,4,6,9,11,13-hexaene-4-carboxamide], the IC50 was 372 nM.

`Nc1nccc2c(CNC(=O)c3ccc4c(c3)C3OC4c4ccc(-c5ccc(F)cc5F)cc43)cccc12` (racemic) [Example 148, (±)-N-[(1-aminoisoquinolin-5-yl)methyl]-12-(2,4-difluorophenyl)-15-oxatetracyclo [6.6.1.0^2,^7.0^9,1^4]-pentadeca-2,4,6,9,11,13-hexaene-4-carboxamide]: the IC50 is 85.1 nM.

On to `Cc1cc(N)nc(C)c1CNC(=O)c1ccc2c(c1)C1OC2c2ccc(-n3ccc(=O)cc3)cc21` (racemic) [Example 149, (±)-N-[(6-amino-2,4-dimethylpyridin-3-yl]-methyl]-12-(4-oxo-1,4-dihydropyridin-1-yl)-15-oxatetracyclo[6.6.1.0^2,^7.0^9,1^4] pentadeca-2,4,6,9,11,13-hexaene-4-carboxamide], for which the IC50 was 5890 nM.

For the molecule `COc1cc(N)nc(C)c1CNC(=O)c1ccc2c(c1)C1OC2c2ccc(-c3c(C)cc(F)cc3F)cc21` (racemic) [Example 150, (±)-N-[(6-amino-4-methoxy-2-methylpyridin-3-yl)methyl]-12-(2,4-difluoro-6-methylphenyl)-15-oxatetracyclo[6.6.1.0^2,^7.0^9,1^4] pentadeca-2,4,6,9,11,13-hexaene-4-carboxamide], the IC50 is 34.7 nM.

`CCOc1cc(N)nc(C)c1CNC(=O)c1ccc2c(c1)C1OC2c2ccc(-c3c(C)cc(F)cc3F)cc21` (racemic) [Example 151, (±)-N-[(6-amino-4-ethoxy-2-methylpyridin-3-yl)-methyl]-12-(2,4-difluoro-6-methylphenyl)-15-oxatetracyclo[6.6.1.0^2,^7.0^9,1^4] pentadeca-2,4,6,9,11,13-hexaene-4-carboxamide]: the IC50 was 195 nM.

As for `COc1ccc(Oc2ccc3c(c2)C2OC3c3ccc(C(=O)NCc4c(C)cc(N)nc4C)cc32)cn1` (racemic) [Example 152, (±)-N-[(6-amino-2,4-dimethylpyridin-3-yl)-methyl]-12-[(6-methoxypyridin-3-yl)oxy]-15-(oxatetracyclo[6.6.1.0^2,^7.0^9,1^4]pentadeca-2,4,6,9,11,13-hexaene-4-carboxamide], the IC50 was 1260 nM.
